Measured values published in US9295671B2, “Benzenesulfonamide derivatives of quinoxaline, pharmaceutical compositions thereof, and their use in methods for treating cancer” (NEUPHARMA, INC., priority 2011, dated 2016).

Tests used:
[1] = target: T1, BRAF (Homo sapiens, UniProt P15056); assay: Z′-LYTE kinase assay, BRAF (Invitrogen); assay type: biochemical; settings: Z′-LYTE method
T1 construct: purchased Invitrogen
Method: (§1) Inhibitory activities of compounds against BRAF or BRAF V600E were measured by Invitrogen using Z′-LYTE® Method as briefly described in the following.
(§2) 4× Test compounds are dissolved in 1% DMSO. […] ATP solutions are diluted to a 4×ATP working concentration in Kinase Buffer (50 mM HEPES pH 7.5, 0.01% BRIJ-35, 10 mM MgCl2, 1 mM EGTA).
(§3) Reaction starts by 30-second shaking of mixture consisting of 2.5 μL4× test compound, […] and 2.5 μL 4×ATP Solution on Bar-coded Corning, low volume NBS, black 384-well plate (Corning Cat. #3676). Then the mixture is incubated for 60-minute at room temperature for the kinase reaction, followed by addition of 5 μL of a 1:1024 dilution of development reagent A and 30-second plate shake. The mixture is then incubated for another 60-minute at room temperature for development reaction. Finally fluorescence is read by plate reader.

[2] = target: T2, BRAF V600E (Homo sapiens, UniProt P15056, V600E); assay: Z′-LYTE kinase assay, BRAF V600E (Invitrogen); assay type: biochemical; settings: Z′-LYTE method
T2 construct: purchased Invitrogen
Method: as §1, §2, §3

[3] = test system: A549 cells; assay: Inhibition of cancer cell growth, MTT assay, A549; assay type: cell-based; settings: Homo sapiens, 72 h
Method: (§4) Inhibition of cell growth by compounds was measured using MTT assay (Mosmann, T., Journal of Immunological Methods, 1983, 65, 55-63). Tumor cell lines were purchased from ATCC (American Type Culture Collection, Manassas, Va.). All cell lines were maintained in RPMI 1640 (Hyclone) supplemented with 10% fetal bovine serum (FBS, Hyclone), glutamine (2 mM, Hyclone), and antibiotics (penicillin 100 U/mL and streptomycin 50 μg/mL) at 37° C. in a humidified atmosphere of 5% CO2 in air. Taxol (as a positive control, Sigma) and compounds were dissolved in DMSO (Sigma), and the final concentration of DMSO in the medium was 1%. Tumor cells were plated in 96-well plates at densities of about 4000 cells/well of a 96-well plate and allowed to adhere/grow for 24 h. They were then treated with various concentrations of drug for 72 h. 3-(4,5-Dimethylthiazol-2-yl)-2,5-diphenyltetrazolium bromide (MTT, Sigma) was used to determine the number of viable cells at the time of compound addition and the number of cells remaining after 72 h compound exposure. The number of cells remaining after 72 h was compared to the number of viable cells at the time of compound addition by measuring the absorbance at 570 nm, allowing for the calculation of growth inhibition.
(§5) All concentrations of compounds were tested in triplicate and controls were averaged over 4 wells. IC50 was calculated by plotting the concentration of compound vs the percentage of inhibition in treated wells using GraphPad Prism 5.
(§6) The scale utilized in Table 4 is as follows: +++ less than 500 nM; ++ between 500 nM and 1 μM; and + greater than 1 μM.

[4] = test system: A375 cells; assay: Inhibition of cancer cell growth, MTT assay, A375; assay type: cell-based; settings: Homo sapiens, A-375, 72 h (Table 4)
Method: as §4, §5, §6

[5] = target: T1, BRAF; assay: LanthaScreen kinase assay, BRAF; assay type: biochemical; settings: ATP 1 μM
Method: (§7) The inhibitory activities of compounds against BRAF or BRAF V600E protein were measured using Invitrogne's LanthaScreen™ kinase assay which is based on fluorescein-labeled MAP2K1 as a substrate. The assay procedure is described as follows.
(§8) The scale utilized in Table 3 is as follows: ++++ less than 50 nM; +++ between 50 and 100 nM; ++ between 100 nM and 1 μM; and + greater than 1 μM.

[6] = target: T2, BRAF V600E; assay: LanthaScreen kinase assay, BRAF V600E; assay type: biochemical; settings: ATP 10 μM
Method: as §7, §8

T1 sequence (P15056 whole entry): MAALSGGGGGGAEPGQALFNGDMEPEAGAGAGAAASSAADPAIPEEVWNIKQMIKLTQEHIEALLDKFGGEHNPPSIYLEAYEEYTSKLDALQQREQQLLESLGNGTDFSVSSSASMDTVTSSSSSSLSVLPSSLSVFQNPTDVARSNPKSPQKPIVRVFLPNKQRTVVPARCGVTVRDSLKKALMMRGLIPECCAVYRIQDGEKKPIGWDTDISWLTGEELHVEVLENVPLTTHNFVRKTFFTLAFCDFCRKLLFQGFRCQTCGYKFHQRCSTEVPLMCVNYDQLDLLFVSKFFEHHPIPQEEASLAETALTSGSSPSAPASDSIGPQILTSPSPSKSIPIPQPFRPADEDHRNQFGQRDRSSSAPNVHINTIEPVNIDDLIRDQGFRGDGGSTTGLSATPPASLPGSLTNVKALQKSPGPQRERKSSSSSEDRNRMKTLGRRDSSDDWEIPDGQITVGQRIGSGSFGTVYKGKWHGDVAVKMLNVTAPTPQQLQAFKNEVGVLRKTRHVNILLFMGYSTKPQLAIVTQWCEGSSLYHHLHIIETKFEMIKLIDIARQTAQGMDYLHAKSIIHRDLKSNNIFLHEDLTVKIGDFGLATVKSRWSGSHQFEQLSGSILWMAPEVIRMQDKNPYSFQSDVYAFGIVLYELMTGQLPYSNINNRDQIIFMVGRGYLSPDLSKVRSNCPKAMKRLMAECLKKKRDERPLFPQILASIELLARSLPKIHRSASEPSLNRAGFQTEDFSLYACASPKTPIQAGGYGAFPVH
T2 sequence (P15056 whole entry V600E): as the sequence (P15056 whole entry) above, with V600E counted along it

| SMILES | inhibition at 1 µM [1] [%] | inhibition at 1 µM [2] [%] | IC50 [3] [nM] | IC50 [4] [nM] | IC50 [5] [nM] | IC50 [6] [nM] |
| --- | --- | --- | --- | --- | --- | --- |
| CCCS(=O)(=O)Nc1cc(F)c(SC)c(C(=O)c2ccc3nccnc3c2)c1F [Compound C08, N-(2,5-difluoro-4-(methylthio)-3-(quinoxaline-6-carbonyl)phenyl)propane-1-sulfonamide] | < 70 | < 70 | > 1000 | > 1000 | – | – |
| CCCS(=O)(=O)Nc1ccc(F)c(C(=O)c2ccc3ncc(-c4ccc(Cl)cc4)nc3c2)c1F [Compound C02, N-(3-(3-(4-chlorophenyl)quinoxaline-6-carbonyl)-2,4-difluorophenyl)propane-1-sulfonamide] | 70 to 89 | > 89 | 500 to 1000 | 500 to 1000 | – | – |
| CCCS(=O)(=O)Nc1ccc(F)c(C(=O)c2ccc3ncc(N4CCOCC4)nc3c2)c1 [Compound C17, N-(4-fluoro-3-(3-morpholinoquinoxaline-6-carbonyl)phenyl)propane-1-sulfonamide] | – | < 70 | > 1000 | > 1000 | – | – |
| CCCS(=O)(=O)Nc1cc(F)c(F)c(C(=O)c2ccc3nccnc3c2)c1Cl [Compound C14, N-(2-chloro-4,5-difluoro-3-(quinoxaline-6-carbonyl)phenyl)propane-1-sulfonamide] | > 89 | 70 to 89 | > 1000 | < 500 | – | – |
| CCCS(=O)(=O)Nc1cc(F)c(F)c(C(=O)c2ccc3ncc(N(C)CCN(C)C)nc3c2)c1F [Compound C13, N-(3-(3-((2-(dimethylamino)ethyl)(methyl)amino)quinoxaline-6-carbonyl)-2,4,5-trifluorophenyl)propane-1-sulfonamide] | > 89 | > 89 | > 1000 | > 1000 | – | – |
| CCCS(=O)(=O)Nc1ccc(F)c(C(=O)c2ccc3ncc(C#N)nc3c2)c1F [Compound C05, N-(3-(3-cyanoquinoxaline-6-carbonyl)-2,4-difluorophenyl)propane-1-sulfonamide] | 70 to 89 | > 89 | < 500 | 500 to 1000 | – | – |
| CCCS(=O)(=O)Nc1ccc(F)c(C(=O)c2ccc3nccnc3c2)c1F [Compound C01, N-(2,4-difluoro-3-(quinoxaline-6-carbonyl)phenyl)propane-1-sulfonamide] | 70 to 89 | > 89 | < 500 | < 500 | – | – |
| CCCS(=O)(=O)Nc1cc(F)c(F)c(C(=O)c2ccc3nccnc3c2)c1 [Compound C07, N-(3,4-difluoro-5-(quinoxaline-6-carbonyl)phenyl)propane-1-sulfonamide] | < 70 | 70 to 89 | > 1000 | 500 to 1000 | – | – |
| CCCS(=O)(=O)Nc1ccc(F)c(C(=O)c2ccc3ncc(OC)nc3c2)c1F [Compound C03, N-(2,4-difluoro-3-(3-methoxyquinoxaline-6-carbonyl)phenyl)propane-1-sulfonamide] | 70 to 89 | > 89 | > 1000 | > 1000 | – | – |
| CCCS(=O)(=O)Nc1cc(F)c(F)c(C(=O)c2ccc3ncc(N4CCOCC4)nc3c2)c1 [Compound C37, N-(3,4-difluoro-5-(3-morpholinoquinoxaline-6-carbonyl)phenyl)propane-1-sulfonamide] | – | 70 to 89 | > 1000 | > 1000 | 100 to 1000 | 50 to 100 |
| CCCS(=O)(=O)Nc1cc(F)c(F)c(C(=O)c2ccc3ncc(Cl)nc3c2)c1F [Compound C11, N-(3-(3-chloroquinoxaline-6-carbonyl)-2,4,5-trifluorophenyl)propane-1-sulfonamide] | 70 to 89 | > 89 | > 1000 | > 1000 | – | – |
| CCCS(=O)(=O)Nc1cc(F)cc(C(=O)c2ccc3ncc(N4CCOCC4)nc3c2)c1 [Compound C18, N-(3-fluoro-5-(3-morpholinoquinoxaline-6-carbonyl)phenyl)propane-1-sulfonamide] | – | < 70 | > 1000 | > 1000 | 50 to 100 | < 50 |
